Measured values reported in patent publication US5744452A, “γ-L-glutamyl containing immunomodulator compounds and methods therewith” (Wei; Edward T., priority 1995, dated 1998).

Legend:
[1] = tested on: patients with generalized surgical infection; assay: Study in patients with generalized surgical infection; type: in vivo, human; settings: for Alanine aminotransferase / Albumin / Asparagine aminotransferase / Band neutrophils (%) / Bilirubin / Creatinin / Hemoglobin / Mature neutrophils (%) / Monocytes (%) / Plasma protein / Urea: surgical patients
Experimental: Preliminary studies were conducted to characterize the immunomodulatory properties of Bestim in human subjects. The protocol for the human subjects studies were reviewed and approved by a Hospital Committee (Moscow Hospital N-24) and informed consent was obtained from all subjects. All 62 patients received by intramuscular injection 0.1 mg of Bestim dissolved in 1.5 to 2.0 ml of sterile saline, one injection per day for 5 days. Patients participating in the clinical trials were from 2 groups:
The second group consisted of 28 patients with generalized surgical infection. Bestim was given together with standard antibiotic therapy.
Laboratory measurements (data in Table 8 to 10) were performed one day before and compared to values obtained three days after injection of Bestim.

[2] = tested on: patient with colon cancer; assay: Case History 1: immunodeficiency after cancer chemotherapy (Patient A); type: in vivo, human
Experimental: Patient A was admitted with the diagnosis of colon cancer. Laboratory confirmed immunodeficiency which appeared as a complication of the main illness. Bestim preparation was applied by 5 daily intramuscular injections of 0.1 mg.

patient with sepsis = assay: Case History 2: immunodeficiency caused by sepsis (Patient B); type: in vivo, human
Experimental: Patient B was in the clinic with a diagnosis of sepsis. Immunodeficiency was confirmed by laboratory tests. Bestim was administered in the standard 5 daily intramuscular doses of 0.1 mg.

[3] = tested on: patient after surgical removal of thymus gland; assay: Case History 3: immunodeficiency caused by surgical removal of the thymus (Patient C); type: in vivo, human
Experimental: Patient C was in the clinic for immunodeficiency caused by surgical removal of the thymus gland. Bestim was administered in the standard 5 daily intramuscular dose of 0.1 mg.

aminopeptidases = assay: Degradation by aminopeptidases; type: in vitro ADME
[4] = surgical infection, Bestim Before
[5] = After Bestim Therapy (5 daily i.m. 0.1 mg)

N[C@@H](CCC(=O)N[C@@H](Cc1c[nH]c2ccccc12)C(=O)O)C(=O)O [Bestim, γ-L-glutamyl-L-tryptophan]
IL-1 production spontaneous [1, 4]: 481 ± 166
IgA [1, 4]: 2.4 ± 0.4 g/L
IgG [1, 4]: 10.6 ± 1.5 g/L
IgM [1, 4]: 1.2 ± 0.2 g/L
NBT test induced [1, 4]: 111 ± 15
NBT test spontaneous [1, 4]: 79 ± 12
TNF production spontaneous [1, 4]: 134 ± 55
TNF prpoduction LPS induced [1, 4]: 370 ± 64
Alanine aminotransferase ([1]; Bestim After): 18 ± 3 IU/L
Albumin ([1]; Bestim After): 40 ± 2 g/L
Asparagine aminotransferase ([1]; Bestim After): 17 ± 3 IU/L
Band neutrophils (%) ([1]; Bestim After): 7 ± 1.6%
Bilirubin ([1]; Bestim After): 7 ± 1 μM/L
Creatinin ([1]; Bestim After): 98 ± 4 μM/L
Hemoglobin ([1]; Bestim After): 101 ± 4 g/L
Mature neutrophils (%) ([1]; Bestim After): 70 ± 1%
Monocytes (%) ([1]; Bestim After): 3.6 ± 0.7%
Plasma protein ([1]; Bestim After): 73 ± 3 g/L
Urea ([1]; Bestim After): 4.0 ± 0.4 mM/L
Alanine aminotransferase ([1]; Bestim Before): 29 ± 7 IU/L
Albumin ([1]; Bestim Before): 38 ± 2 g/L
Asparagine aminotransferase ([1]; Bestim Before): 30 ± 9 IU/L
Band neutrophils (%) ([1]; Bestim Before): 12 ± 2%
Bilirubin ([1]; Bestim Before): 10 ± 1 μM/L
Creatinin ([1]; Bestim Before): 117 ± 7 μM/L
Hemoglobin ([1]; Bestim Before): 98 ± 4 g/L
Mature neutrophils (%) ([1]; Bestim Before): 76 ± 2%
Monocytes (%) ([1]; Bestim Before): 3.2 ± 0.5%
Plasma protein ([1]; Bestim Before): 70 ± 3 g/L
Urea ([1]; Bestim Before): 5.5 ± 0.3 mM/L
Lymphocytes ([2]; After Bestim Therapy): 1800 per mm^3
T-Lymphocytes (CD3) ([2]; After Bestim Therapy): 60%
T-helper lymphocytes (CD4) ([2]; After Bestim Therapy): 35%
White blood cells [2, 5]: 6.9 × 10^3 per mm^3
Lymphocytes ([2]; Before Therapy): 200 per mm^3
T-Lymphocytes (CD3) ([2]; Before Therapy): 23%
T-helper lymphocytes (CD4) ([2]; Before Therapy): 14%
White blood cells ([2]; Before Therapy): 5.5 × 10^3 per mm^3
Lymphocytes (patient with sepsis; After Bestim Therapy): 1370 per mm^3
T-Lymphocytes (CD3) (patient with sepsis; After Bestim Therapy): 75%
T-helper lymphocytes (CD4) (patient with sepsis; After Bestim Therapy): 50%
White blood cells (patient with sepsis; [5]): 9.8 × 10^3 per mm^3
Lymphocytes (patient with sepsis; Before Therapy): 560 per mm^3
T-Lymphocytes (CD3) (patient with sepsis; Before Therapy): 23%
T-helper lymphocytes (CD4) (patient with sepsis; Before Therapy): 11%
White blood cells (patient with sepsis; Before Therapy): 10.2 × 10^3 per mm^3
T-Lymphocytes (CD3) ([3]; After Bestim Therapy): 49%
Lymphocytes [3, 5]: 1980 per mm^3
Lymphocytes ([3]; Before Therapy): 1100 per mm^3
T-Lymphocytes (CD3) ([3]; Before Therapy): 10%
activity of aminopeptidases against the compound (aminopeptidases): not active
